Read-outs that look alike come from different tables or passages of the source.
Tests used:
Type in all cases: cell-based
Hs578T = experiment: Apoptosis assay (Cellomics, nucleus condensation); conditions: Homo sapiens, Hs-578T, Table III, read-out: Apoptosis induction in Hs578T
How it was run: (§1)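 Cells seeded at 5000 per well were stained live with Hoechst 33342, and nuclear condensation was quantified per nucleus by automated fluorescence imaging alongside cell counts. Compound was tested at 12.5, 6.25, 3.125, 1.56, 0.78 and 0.39 μM against a DMSO control, with reads at 24 h and 48 h.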

C8161 [1] = experiment: Apoptosis assay (Cellomics, nucleus condensation); conditions: Homo sapiens, Table III, read-out: Apoptosis induction in C8161
How it was run: as §1

U118 = experiment: Apoptosis assay (Cellomics, nucleus condensation); conditions: Table III, read-out: Apoptosis induction in U118
How it was run: as §1

U138 = experiment: Apoptosis assay (Cellomics, nucleus condensation); conditions: Table III, read-out: Apoptosis induction in U138
How it was run: as §1

SF763 = experiment: Apoptosis assay (Cellomics, nucleus condensation); conditions: Table III, read-out: Apoptosis induction in SF763
How it was run: as §1

SF126 = experiment: Apoptosis assay (Cellomics, nucleus condensation); conditions: Homo sapiens, SF-126, Table III, read-out: Apoptosis induction in SF126
How it was run: as §1

viable cells in culture = experiment: Cell viability assay at 10 μM (CellTiter-Glo, Table VII); conditions: compound 10 μM, 72 h;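 also: graded A 0-20%; B 21-40%; C 41-60%; D over 60% viable cells relative to DMSO control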
How it was run: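 Viable cell number was measured with the CellTiter-Glo Luminescent Cell Viability Assay (Promega), following the manufacturer's protocol, which quantifies ATP as a marker of metabolically active cells. In 96-well plates, 1000 cells/well in 100 μl medium were exposed to compound at 10 μM, or to DMSO control, for 72 h. Values were calculated relative to DMSO-control ATP.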

tumor cell = experiment: Matrigel outgrowth assay/branching assay (Table Va)
How it was run: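 Step one: Matrigel (3 mg/ml) is set for 1 h at 37° C. Step two: 5000 cells per well go on in medium with compound (0.78–3.125 μM) or DMSO. Step three: images at 48, 72 and 96 h are scored for complete loss of branching.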

MDA-MB231 = experiment: Cell vitality assay (ATP assay, CellTiter-Glo); conditions: Homo sapiens, MDA-MB-231; MDA-MB231, 72 h; Table IIa; read-out: IC50 ATP-Assay after 72 h MDA-MB231
How it was run: (§2)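 1000 cells/well were exposed to compound at 12.5 μM down to 0.195 μM (twofold steps) or DMSO for 72 h. ATP was then measured by luminescence after 10 min reagent lysis at room temperature. IC50 was taken as the concentration giving 50% of the DMSO-control ATP level.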

C8161 [2] = experiment: Cell vitality assay (ATP assay, CellTiter-Glo); conditions: Homo sapiens; C8161, 72 h; Table IIa; read-out: IC50 ATP-Assay after 72 h C8161
How it was run: as §2

[3] = Homo sapiens, HCT-116, HCT116 def, read-out: percentage (%) of viable cells HCT 116def
[4] = Homo sapiens, HCT-116, HCT116 wt, read-out: percentage (%) of viable cells HCT 116wt
[5] = Homo sapiens, HT-29, HT29, read-out: percentage (%) of viable cells HT29
[6] = Homo sapiens, NCI-H358, H358, read-out: percentage (%) of viable cells H358
[7] = Homo sapiens, NCI-H1650, H1650, read-out: percentage (%) of viable cells H1650
[8] = Homo sapiens, NCI-H1666, H1666, read-out: percentage (%) of viable cells H1666
[9] = Homo sapiens, NCI-H1975, H1975, read-out: percentage (%) of viable cells H1975
[10] = Homo sapiens, NCI-H1993, H1993, read-out: percentage (%) of viable cells H1993
[11] = Homo sapiens, A549, read-out: percentage (%) of viable cells A549
[12] = Homo sapiens, HCC827, read-out: percentage (%) of viable cells HCC827
[13] = Homo sapiens, SW480, read-out: percentage (%) of viable cells SW480
[14] = RKO, read-out: percentage (%) of viable cells RKO
[15] = Homo sapiens, C8161 cells, read-out: Total branching inhibition in Matrigel C8161
[16] = Homo sapiens, Hs-578T, Hs578T cells, read-out: Total branching inhibition in Matrigel Hs578T
[17] = U118 cells, read-out: Total branching inhibition in Matrigel U118
[18] = U138 cells, read-out: Total branching inhibition in Matrigel U138

SMILES	IC50 (Hs578T) [µM]	IC50 (C8161 [1]) [µM]	IC50 (U118) [µM]	IC50 (U138) [µM]	IC50 (SF763) [µM]	IC50 (SF126) [µM]	viability at 10 µM (viable cells in culture; [3]) [%]	viability at 10 µM (viable cells in culture; [4]) [%]	viability at 10 µM (viable cells in culture; [5]) [%]	viability at 10 µM (viable cells in culture; [6]) [%]	viability at 10 µM (viable cells in culture; [7]) [%]	viability at 10 µM (viable cells in culture; [8]) [%]	viability at 10 µM (viable cells in culture; [9]) [%]	viability at 10 µM (viable cells in culture; [10]) [%]	viability at 10 µM (viable cells in culture; [11]) [%]	viability at 10 µM (viable cells in culture; [12]) [%]	viability at 10 µM (viable cells in culture; [13]) [%]	viability at 10 µM (viable cells in culture; [14]) [%]	IC50 (tumor cell; [15]) [µM]	IC50 (tumor cell; [16]) [µM]	further results
COc1cc2c(Oc3ccc(NS(=O)(=O)c4ccc(C)c(F)c4)cc3F)ccnc2cc1OCCCN1CCCC(C)C1 (stereo not drawn) [Example 56, 3-Fluoro-N-(3-fluoro-4-{6-methoxy-7-[3-(3-methyl-piperidin-1-yl)-propoxy]-quinolin-4-yloxy}-phenyl)-4-methyl-benzenesulfonamide]	≤ 12.5	≤ 12.5	≤ 12.5	≤ 12.5	≤ 12.5	≤ 12.5	21 to 40	21 to 40	0 to 20	0 to 20	41 to 60	21 to 40	0 to 20	41 to 60	> 60	21 to 40	0 to 20	21 to 40	≤ 5	5 to 50	IC50 (tumor cell; [17]): ≤ 5 µM; IC50 (tumor cell; [18]): 5 to 50 µM; IC50 (MDA-MB231): 12.5 to 50 µM; IC50 (C8161 [2]): ≤ 12.5 µM
COc1cc2c(Oc3ccc(NS(=O)(=O)c4cccc(Oc5ccccc5)c4)cc3F)ccnc2cc1OCCCN1CCCC(C)C1 (stereo not drawn) [Example 59, N-(3-Fluoro-4-{6-methoxy-7-[3-(3-methyl-piperidin-1-yl)-propoxy]-quinolin-4-yloxy}-phenyl)-3-phenoxy-benzenesulfonamide]	≤ 12.5	≤ 12.5	≤ 12.5	≤ 12.5	≤ 12.5	≤ 12.5	0 to 20	0 to 20	0 to 20	21 to 40	> 60	41 to 60	21 to 40	0 to 20	21 to 40	21 to 40	0 to 20	0 to 20	≤ 5	≤ 5	IC50 (tumor cell; [17]): 5 to 50 µM; IC50 (tumor cell; [18]): ≤ 5 µM; IC50 (MDA-MB231): ≤ 12.5 µM; IC50 (C8161 [2]): ≤ 12.5 µM
COc1cc2c(Oc3ccc(NS(=O)(=O)c4ccc(Cl)s4)cc3F)ccnc2cc1OCCCN1CCCC(C)C1 (stereo not drawn) [Example 63, 5-Chloro-thiophene-2-sulfonic acid (3-fluoro-4-{6-methoxy-7-[3-(3-methyl-piperidin-1-yl)-propoxy]-quinolin-4-yloxy}-phenyl)-amide]	≤ 12.5	≤ 12.5	≤ 12.5	≤ 12.5	≤ 12.5	≤ 12.5	21 to 40	0 to 20	21 to 40	0 to 20	41 to 60	41 to 60	0 to 20	0 to 20	21 to 40	21 to 40	0 to 20	> 60	5 to 50	≤ 5	IC50 (tumor cell; [17]): ≤ 5 µM; IC50 (tumor cell; [18]): ≤ 5 µM; IC50 (MDA-MB231): ≤ 12.5 µM; IC50 (C8161 [2]): ≤ 12.5 µM
COc1cc2c(Oc3ccc(NS(=O)(=O)c4cccc(C)c4)cc3F)ccnc2cc1OCCCN1CCCC(C)C1 (stereo not drawn) [Example 70, N-(3-Fluoro-4-{6-methoxy-7-[3-(3-methyl-piperidin-1-yl)-propoxy]-quinolin-4-yloxy}-phenyl)-3-methyl-benzenesulfonamide]	≤ 12.5	≤ 12.5	≤ 12.5	≤ 12.5	≤ 12.5	≤ 12.5	21 to 40	41 to 60	21 to 40	21 to 40	41 to 60	21 to 40	0 to 20	0 to 20	21 to 40	21 to 40	21 to 40	0 to 20	≤ 5	≤ 5	IC50 (tumor cell; [17]): ≤ 5 µM; IC50 (tumor cell; [18]): ≤ 5 µM; IC50 (MDA-MB231): 12.5 to 50 µM; IC50 (C8161 [2]): 12.5 to 50 µM
COc1cc2c(Oc3ccc(NS(=O)(=O)c4ccc(F)c(C#N)c4)cc3F)ccnc2cc1OCCCN1CCCC(C)C1 (stereo not drawn) [Example 72, 3-Cyano-4-fluoro-N-(3-fluoro-4-{6-methoxy-7-[3-(3-methyl-piperidin-1-yl)-propoxy]-quinolin-4-yloxy}-phenyl)-benzenesulfonamide]	≤ 12.5	≤ 12.5	≤ 12.5	12.5 to 50	≤ 12.5	12.5 to 50	41 to 60	21 to 40	0 to 20	21 to 40	41 to 60	21 to 40	41 to 60	0 to 20	> 60	41 to 60	0 to 20	0 to 20	≤ 5	≤ 5	IC50 (tumor cell; [17]): ≤ 5 µM; IC50 (tumor cell; [18]): ≤ 5 µM; IC50 (MDA-MB231): 12.5 to 50 µM; IC50 (C8161 [2]): 12.5 to 50 µM
COc1cc2c(Oc3c(Cl)cc(NS(=O)(=O)c4c(F)cccc4F)cc3Cl)ccnc2cc1OCCCN1CCN(C)CC1 [Example 88, N-(3,5-Dichloro-4-{6-methoxy-7-[3-(4-methyl-piperazin-1-yl)-propoxy]-quinolin-4-yloxy}-phenyl)-2,6-difluoro-benzenesulfonamide]	≤ 12.5	≤ 12.5	≤ 12.5	≤ 12.5	≤ 12.5	≤ 12.5	0 to 20	41 to 60	21 to 40	0 to 20	41 to 60	21 to 40	0 to 20	0 to 20	41 to 60	0 to 20	21 to 40	41 to 60	≤ 5	5 to 50	IC50 (tumor cell; [17]): 5 to 50 µM; IC50 (tumor cell; [18]): 5 to 50 µM; IC50 (MDA-MB231): ≤ 12.5 µM; IC50 (C8161 [2]): ≤ 12.5 µM
COc1cc2c(Oc3ccc(NS(=O)(=O)c4ccccc4C(F)(F)F)cc3F)ccnc2cc1OCC(=O)N(C)C [Example 93, 2-{4-[2-Fluoro-4-(2-trifluoromethyl-benzenesulfonylamino)-phenoxy]-6-methoxy-quinolin-7-yloxy}-N,N-dimethyl-acetamide]	≤ 12.5	≤ 12.5	≤ 12.5	≤ 12.5	≤ 12.5	≤ 12.5	21 to 40	> 60	0 to 20	0 to 20	21 to 40	21 to 40	0 to 20	21 to 40	> 60	21 to 40	0 to 20	0 to 20	≤ 5	≤ 5	IC50 (tumor cell; [17]): ≤ 5 µM; IC50 (tumor cell; [18]): 5 to 50 µM; IC50 (MDA-MB231): 12.5 to 50 µM; IC50 (C8161 [2]): ≤ 12.5 µM
